The subject of the first test is NCI-H441. The test is described as follows: relative viability (nuclei count vs DMSO), 5 days (fraction); higher = more cells survive. The following applies: first compound 8 µM. Put shortly:
(§1)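 Relative viability divides the nuclei count in treated wells by that in vehicle wells. Lung cancer cell lines were seeded in 1536-well plates, dosed by pin tool the next day, and fixed and stained after 5 days in one step with final 0.05% Triton X-100, 1% formaldehyde and 1 ug/ml Hoechst. Dosing was a single drug or a fixed anchor-drug dose plus five library-drug doses (not always all listed) in √10 steps, and values are medians of duplicate plates imaged at 4×.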
`Nc1cccc2c1CN(C1CCC(=O)NC1=O)C2=O` (stereo not given) [Lenalidomide] + Cc1nc(Nc2ncc(C(=O)Nc3c(C)cccc3Cl)s2)cc(N2CCN(CCO)CC2)n1 [Dasatinib] (partner 0.075 µM) gave a relative viability of 0.493.

As for `Nc1cccc2c1CN(C1CCC(=O)NC1=O)C2=O` (stereo not given) [Lenalidomide] + N=C(N)NC(=N)NCCc1ccccc1 [Phenformin] (partner 250 µM), the relative viability was found to be 0.613.

On to `Nc1cccc2c1CN(C1CCC(=O)NC1=O)C2=O` (stereo not given) [Lenalidomide] + CC(=O)c1c(C)c2cnc(Nc3ccc(N4CCNCC4)cn3)nc2n(C2CCCC2)c1=O [Palbociclib] (partner 0.5 µM), for which the relative viability came to 0.202.

In a further test the test system is NCI-H650. Described as above. The following applies: first compound 0.253 µM. In a few lines:
as §1
Consider `Nc1cccc2c1CN(C1CCC(=O)NC1=O)C2=O` (stereo not given) [Lenalidomide] + CCNC(=O)c1noc(-c2cc(C(C)C)c(O)cc2O)c1-c1ccc(CN2CCOCC2)cc1 [Luminespib] (partner 0.01 µM), for which the relative viability stood at 0.905.

For `Nc1cccc2c1CN(C1CCC(=O)NC1=O)C2=O` (stereo not given) [Lenalidomide] + Nc1ncn([C@H]2C[C@H](O)[C@@H](CO)O2)c(=O)n1 [Decitabine] (partner 2 µM), the relative viability turned out to be 0.312.

On to `Nc1cccc2c1CN(C1CCC(=O)NC1=O)C2=O` (stereo not given) [Lenalidomide] + Cc1nc(Nc2ncc(C(=O)Nc3c(C)cccc3Cl)s2)cc(N2CCN(CCO)CC2)n1 [Dasatinib] (partner 0.075 µM), for which the relative viability amounted to 0.459.

`Nc1cccc2c1CN(C1CCC(=O)NC1=O)C2=O` (stereo not given) [Lenalidomide] + N=C(N)NC(=N)NCCc1ccccc1 [Phenformin] (partner 250 µM): the relative viability stood at 0.528.

On to `Nc1cccc2c1CN(C1CCC(=O)NC1=O)C2=O` (stereo not given) [Lenalidomide] + CC(=O)c1c(C)c2cnc(Nc3ccc(N4CCNCC4)cn3)nc2n(C2CCCC2)c1=O [Palbociclib] (partner 0.5 µM), for which the relative viability is 0.405.

The test is the same for the next values; noted with them: first compound 0.8 µM.
The compound `Nc1cccc2c1CN(C1CCC(=O)NC1=O)C2=O` (stereo not given) [Lenalidomide] + Nc1ncn([C@H]2C[C@H](O)[C@@H](CO)O2)c(=O)n1 [Decitabine] (partner 2 µM) yielded a relative viability of 0.349.

Compound `Nc1cccc2c1CN(C1CCC(=O)NC1=O)C2=O` (stereo not given) [Lenalidomide] + CC(=O)c1c(C)c2cnc(Nc3ccc(N4CCNCC4)cn3)nc2n(C2CCCC2)c1=O [Palbociclib] (partner 0.5 µM) returned a relative viability of 0.303.

The same test, now with this note: first compound 2.53 µM.
As for `Nc1cccc2c1CN(C1CCC(=O)NC1=O)C2=O` (stereo not given) [Lenalidomide] + CCNC(=O)c1noc(-c2cc(C(C)C)c(O)cc2O)c1-c1ccc(CN2CCOCC2)cc1 [Luminespib] (partner 0.01 µM), the relative viability is 0.831.

Turning to `Nc1cccc2c1CN(C1CCC(=O)NC1=O)C2=O` (stereo not given) [Lenalidomide] + Nc1ncn([C@H]2C[C@H](O)[C@@H](CO)O2)c(=O)n1 [Decitabine] (partner 2 µM), the relative viability was 0.351.

Take `Nc1cccc2c1CN(C1CCC(=O)NC1=O)C2=O` (stereo not given) [Lenalidomide] + Cc1nc(Nc2ncc(C(=O)Nc3c(C)cccc3Cl)s2)cc(N2CCN(CCO)CC2)n1 [Dasatinib] (partner 0.075 µM): the relative viability was found to be 0.474.

Compound `Nc1cccc2c1CN(C1CCC(=O)NC1=O)C2=O` (stereo not given) [Lenalidomide] + N=C(N)NC(=N)NCCc1ccccc1 [Phenformin] (partner 250 µM) showed a relative viability of 0.523.

In turn, `Nc1cccc2c1CN(C1CCC(=O)NC1=O)C2=O` (stereo not given) [Lenalidomide] + CC(=O)c1c(C)c2cnc(Nc3ccc(N4CCNCC4)cn3)nc2n(C2CCCC2)c1=O [Palbociclib] (partner 0.5 µM) gave a relative viability of 0.326.

Still in this test, the particulars now being: first compound 8 µM.
`Nc1cccc2c1CN(C1CCC(=O)NC1=O)C2=O` (stereo not given) [Lenalidomide] + CCNC(=O)c1noc(-c2cc(C(C)C)c(O)cc2O)c1-c1ccc(CN2CCOCC2)cc1 [Luminespib] (partner 0.01 µM): the relative viability was found to be 0.823.

Compound `Nc1cccc2c1CN(C1CCC(=O)NC1=O)C2=O` (stereo not given) [Lenalidomide] + Nc1ncn([C@H]2C[C@H](O)[C@@H](CO)O2)c(=O)n1 [Decitabine] (partner 2 µM) showed a relative viability of 0.332.

Turning to `Nc1cccc2c1CN(C1CCC(=O)NC1=O)C2=O` (stereo not given) [Lenalidomide] + Cc1nc(Nc2ncc(C(=O)Nc3c(C)cccc3Cl)s2)cc(N2CCN(CCO)CC2)n1 [Dasatinib] (partner 0.075 µM), the relative viability came to 0.355.

For the compound `Nc1cccc2c1CN(C1CCC(=O)NC1=O)C2=O` (stereo not given) [Lenalidomide] + N=C(N)NC(=N)NCCc1ccccc1 [Phenformin] (partner 250 µM), the relative viability came to 0.42.

In the case of `Nc1cccc2c1CN(C1CCC(=O)NC1=O)C2=O` (stereo not given) [Lenalidomide] + CC(=O)c1c(C)c2cnc(Nc3ccc(N4CCNCC4)cn3)nc2n(C2CCCC2)c1=O [Palbociclib] (partner 0.5 µM), the relative viability was determined as 0.355.

The subject of another test is NCI-H1734. Described as above. Particulars: first compound 0.253 µM. Put shortly: as §1
As to `Nc1cccc2c1CN(C1CCC(=O)NC1=O)C2=O` (stereo not given) [Lenalidomide] + CCNC(=O)c1noc(-c2cc(C(C)C)c(O)cc2O)c1-c1ccc(CN2CCOCC2)cc1 [Luminespib] (partner 0.01 µM), the relative viability amounted to 0.157.

With `Nc1cccc2c1CN(C1CCC(=O)NC1=O)C2=O` (stereo not given) [Lenalidomide] + Nc1ncn([C@H]2C[C@H](O)[C@@H](CO)O2)c(=O)n1 [Decitabine] (partner 2 µM), the relative viability was 0.508.

As to `Nc1cccc2c1CN(C1CCC(=O)NC1=O)C2=O` (stereo not given) [Lenalidomide] + Cc1nc(Nc2ncc(C(=O)Nc3c(C)cccc3Cl)s2)cc(N2CCN(CCO)CC2)n1 [Dasatinib] (partner 0.075 µM), the relative viability was found to be 0.506.

The compound `Nc1cccc2c1CN(C1CCC(=O)NC1=O)C2=O` (stereo not given) [Lenalidomide] + N=C(N)NC(=N)NCCc1ccccc1 [Phenformin] (partner 250 µM) yielded a relative viability of 0.39.

As for `Nc1cccc2c1CN(C1CCC(=O)NC1=O)C2=O` (stereo not given) [Lenalidomide] + CC(=O)c1c(C)c2cnc(Nc3ccc(N4CCNCC4)cn3)nc2n(C2CCCC2)c1=O [Palbociclib] (partner 0.5 µM), the relative viability was determined as 0.348.

Still in this test, the particulars now being: first compound 0.8 µM.
Compound `Nc1cccc2c1CN(C1CCC(=O)NC1=O)C2=O` (stereo not given) [Lenalidomide] + CCNC(=O)c1noc(-c2cc(C(C)C)c(O)cc2O)c1-c1ccc(CN2CCOCC2)cc1 [Luminespib] (partner 0.01 µM) displayed a relative viability of 0.202.

Compound `Nc1cccc2c1CN(C1CCC(=O)NC1=O)C2=O` (stereo not given) [Lenalidomide] + Nc1ncn([C@H]2C[C@H](O)[C@@H](CO)O2)c(=O)n1 [Decitabine] (partner 2 µM) showed a relative viability of 0.478.

Regarding `Nc1cccc2c1CN(C1CCC(=O)NC1=O)C2=O` (stereo not given) [Lenalidomide] + Cc1nc(Nc2ncc(C(=O)Nc3c(C)cccc3Cl)s2)cc(N2CCN(CCO)CC2)n1 [Dasatinib] (partner 0.075 µM), the relative viability came to 0.474.

As to `Nc1cccc2c1CN(C1CCC(=O)NC1=O)C2=O` (stereo not given) [Lenalidomide] + N=C(N)NC(=N)NCCc1ccccc1 [Phenformin] (partner 250 µM), the relative viability was determined as 0.413.

`Nc1cccc2c1CN(C1CCC(=O)NC1=O)C2=O` (stereo not given) [Lenalidomide] + CC(=O)c1c(C)c2cnc(Nc3ccc(N4CCNCC4)cn3)nc2n(C2CCCC2)c1=O [Palbociclib] (partner 0.5 µM) had a relative viability of 0.392.
